{"source": "patent US12577230B2", "about": "“2-(3-pyridin-2-yl-4-quinolin-4-yl-pyrazol-1-yl)- acetamide derivatives as inhibitors of transforming growth factor-beta receptor I/ALK5” (AGOMAB SPAIN S.L.U., priority 2020, dated 2026)", "key": {"[1]": {"experiment": "Determination of plasma stability in human plasma", "assay_type": "in vitro ADME", "settings": "10 μM, 37° C.", "experimental": "Determination of Plasma Stability of Some Compounds\nHuman plasma pooled from healthy donors extracted in citrate tubes was employed in the assay. Briefly, plates containing 10 μM compounds in plasma (total volume: 50 μL) were incubated at 37° C. at the different times (0, 30, 120 and 360 min). Then 100 μl Acetonitrile were added for precipitating plasma protein, and the plate was centrifuged at 46000 g for 60 min at 5° C. Supernatant was taken and analysed by UPLC/MS/MS for sample quantification. Stationary phase: Reverse phase Acquity UPLC® BEH C18 1.7 μm (2.1 mm×50 mm) (Waters). Mobile phase: 0.1% Formic acid water/0.1% formic acid in acetonitrile.\nFlow: 0.6 ml/min. The chromatographic equipment employed was an UPL QSM Waters Acquity. Compound concentrations were calculated from the MS peak areas."}, "Human TGFβR-1": {"molecular_target": "T1, Human TGFβR-1 (Homo sapiens, UniProt P36897)", "T1 construct": "purchased Promega V4092", "T1 sequence (P36897 34-503)": "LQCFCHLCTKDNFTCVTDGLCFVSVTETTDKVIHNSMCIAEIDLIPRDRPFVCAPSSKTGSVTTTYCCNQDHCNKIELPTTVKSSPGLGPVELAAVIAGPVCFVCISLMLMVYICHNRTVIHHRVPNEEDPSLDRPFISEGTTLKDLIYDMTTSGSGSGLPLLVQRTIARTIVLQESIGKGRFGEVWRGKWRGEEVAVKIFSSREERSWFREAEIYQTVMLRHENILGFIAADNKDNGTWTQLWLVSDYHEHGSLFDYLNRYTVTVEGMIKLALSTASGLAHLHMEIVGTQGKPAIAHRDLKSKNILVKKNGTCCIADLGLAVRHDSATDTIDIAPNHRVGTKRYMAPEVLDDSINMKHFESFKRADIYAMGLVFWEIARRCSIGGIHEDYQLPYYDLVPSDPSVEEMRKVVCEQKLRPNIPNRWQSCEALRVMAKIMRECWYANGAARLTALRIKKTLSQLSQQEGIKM", "experiment": "In vitro enzyme assay: inhibition of TGFβR-1 (ADP-Glo kinase assay)", "assay_type": "biochemical", "settings": "TGFβR-1 kinase 50 ng/well, 50 μM ATP, 120 min RT", "text": "In the present application are used the following abbreviations, with the corresponding definitions: • AcOH: Acetic Acid • ACVR2B: activin A receptor, type IIB • ALKn: activin receptor-like kinase n • ATP: adenosin triphosphate • Boc2O: tert-butyl dicarbonate • Boc: tert-Butoxycarbonyl • Clint: Intrinsic clearance • DIPEA: N,N-Diisopropylethylamine • DMA: Dimethylacetamide • DMAP: 4-Dimethylaminopyridine • DMF: N,N-Dimethylformamide • DMSO: Dimethyl sulfoxide • EDCl: N-(3-Dimethylaminopropyl)-N′-ethylcarbodiimide) • Et3N: Triethylamine • EtOAc: Ethyl acetate • EtOH: ethanol • FBS: Fetal bovine serum • H: hour • HATU: 1-[Bis(dimethylamino)methylene]-1H-1,2,3-triazolo[4,5-b]pyridinium 3-oxide hexafluorophosphate • HOBT: Hydroxybenzotriazole • HPLC: High-performance liquid chromatography • ^1H-NMR: Proton nuclear magnetic resonance • K2EDTA: ethylenediaminetetracetic acid dipotassium salt • LC: Liquid chromatography • LiHMDS: Lithium bis(trimethylsilyl)amide • LLOQ: lower limit of quantification • MeCN: Acetonitrile • MeOH: Methanol • Min: minutes • MS: Mass spectroscopy • MTBE: Methyl tert-butyl ether • NBS: N-Bromosuccinimide • NaCMC: Sodium carboxymethyl cellulose • Rt: retention time • RT: room temperature • Sem: 2-(Trimethylsilyl)ethoxymethyl • TGFβ: transforming growth factor-β • THF: Tetrahydrofuran • THF:EtOH: Tetrahydrofuran:ethanol • UPLC: ultra high-performance liquid chromatography • UV: Ultraviolet Pharmacological Activity In Vitro Enzyme Assay: Inhibition of TGFβR-1 Human TGFβR-1 inhibition experiments were carried out in a white 384-microplate low flange (Corning 3572) with ADP-Glo kinase Assay Kit (Promega V9101) and TGFβR-1 Kinase Enzyme System (Promega V4092). Test compounds and standard Galunisertib (Cayman 15312), 50 ng/well TGFβR-1 kinase and 50 μM ATP were added in a final volume of 10 μL/well, using Reaction buffer supplied by kit as assay buffer. The reaction mixture was incubated in gentle shaking for 120 min at RT, after incubation of 10 μL of ADP-Glo Reagent was added and incubated in gentle shaking for 40 min at RT. 20 μL of Kinase Detection Reagent was added and plate was incubated in gentle shaking for 30 min at RT. Luminescence (1000 ms) was measured in Perkin Elmer EnSpire Multimode plate reader. Results"}, "ALK-5": {"molecular_target": "T2, ALK-5 (Homo sapiens, UniProt P36897)", "T2 construct": "endogenous in cells; host or cells: A549", "T2 sequence (P36897 34-503)": "T1 sequence (P36897 34-503)", "experiment": "Determination of the intracellular TGF-beta kinase activity (ALK-5), AlphaLISA SureFire p-SMAD3 in A549 cells", "assay_type": "cell-based", "settings": "A549 cell line, TGF-β2 activated, p-SMAD3(Ser423/425)", "experimental": "Determination of the Intracellular TGF-Beta Kinase Activity (ALK-5)\nThe experiments were carried out in A549 cell line. 30000 cells were seeded in 200 μl of culture medium (Sigma D6046) supplemented with L-Glutamine (Sigma G7513), Penicillin/Streptomycin (Invitrogen 11058) and FBS (Sigma F9665) on a 96 wells microplate (Becton Dickinson 353072). After 16 hours medium was changed to serum free medium. Galunisertib, as inhibitor ligand (Cayman CAY-15312) and recombinant Human TGF-β2 (R&D Systems 302-B2-002) as activator of the ALK-5, were added in their corresponding wells and incubated following the instructions of the Alphascreen AlphaLISA@SureFire® Ultra™ p-SMAD3(Ser423/425) Kit (Perkin Elmer ALSU-PSM3-A500)."}}}
{"smiles": "Cc1cccc(-c2nn(CC(=O)Nc3cc(F)cc(C(=O)OCC4CC4)c3)cc2-c2ccnc3ccccc23)n1", "note": "[Comparative example 1, Cyclopropylmethyl 3-fluoro-5-(2-(3-(6-methylpyridin-2-yl)-4-(quinolin-4-yl)-1H-pyrazol-1-yl)acetamido)benzoate, reference compound]", "values": [{"measurement": "remaining percentage 0 min", "setting": "[1]", "result": 100, "unit": "%"}, {"measurement": "remaining percentage 30 min", "setting": "[1]", "result": 100, "unit": "%"}, {"measurement": "remaining percentage 120 min", "setting": "[1]", "result": 88, "unit": "%"}, {"measurement": "remaining percentage 360 min", "setting": "[1]", "result": 87, "unit": "%"}]}
{"smiles": "COC(=O)c1cc(Cl)cc(NC(=O)Cn2cc(-c3ccnc4ccccc34)c(-c3cccc(C)n3)n2)c1", "note": "[Comparative example 2, methyl 3-chloro-5-(2-(3-(6-methylpyridin-2-yl)-4-(quinolin-4-yl)-1H-pyrazol-1-yl)acetamido)benzoate, reference compound]", "values": [{"measurement": "remaining percentage 0 min", "setting": "[1]", "result": 100, "unit": "%"}, {"measurement": "remaining percentage 30 min", "setting": "[1]", "result": 83, "unit": "%"}, {"measurement": "remaining percentage 120 min", "setting": "[1]", "result": 69, "unit": "%"}, {"measurement": "remaining percentage 360 min", "setting": "[1]", "result": 67, "unit": "%"}]}
{"smiles": "Cc1cccc(-c2nn(CC(=O)Nc3cc(F)cc(C(=O)OCCO)c3)cc2-c2ccnc3ccccc23)n1", "note": "[Comparative example 3, 2-hydroxyethyl 3-fluoro-5-(2-(3-(6-methylpyridin-2-yl)-4-(quinolin-4-yl)-1H-pyrazol-1-yl)acetamido)benzoate, reference compound]", "values": [{"measurement": "remaining percentage 0 min", "setting": "[1]", "result": 100, "unit": "%"}, {"measurement": "remaining percentage 30 min", "setting": "[1]", "result": 99, "unit": "%"}, {"measurement": "remaining percentage 120 min", "setting": "[1]", "result": 96, "unit": "%"}, {"measurement": "remaining percentage 360 min", "setting": "[1]", "result": 73, "unit": "%"}]}
{"smiles": "Cc1cccc(-c2nn(CC(=O)Nc3cncc(C(=O)OCCN(C)C)c3)cc2-c2ccnc3ccccc23)n1", "note": "[Example 2, 2-(dimethylamino)ethyl 5-(2-(3-(6-methylpyridin-2-yl)-4-(quinolin-4-yl)-1H-pyrazol-1-yl)acetamido)nicotinate]", "values": [{"measurement": "IC50", "setting": "Human TGFβR-1", "result": "< 100", "unit": "nM"}]}
{"smiles": "Cc1cccc(-c2nn(CC(=O)Nc3ccc(C(=O)OCCN(C)C)cn3)cc2-c2ccnc3ccccc23)n1", "note": "[Example 3, 2-(dimethylamino)ethyl 6-(2-(3-(6-methylpyridin-2-yl)-4-(quinolin-4-yl)-1H-pyrazol-1-yl)acetamido)nicotinate]", "values": [{"measurement": "IC50", "setting": "Human TGFβR-1", "result": "100 to 250", "unit": "nM"}]}
{"smiles": "Cc1cccc(-c2nn(CC(=O)Nc3cc(F)cc(C(=O)OCCN4CCOCC4)c3)cc2-c2ccnc3ccccc23)n1", "note": "[Example 4, 2-morpholinoethyl 3-fluoro-5-(2-(3-(6-methylpyridin-2-yl)-4-(quinolin-4-yl)-1H-pyrazol-1-yl)acetamido)benzoate]", "values": [{"measurement": "IC50", "setting": "ALK-5", "result": "< 1000", "unit": "nM"}, {"measurement": "IC50", "setting": "Human TGFβR-1", "result": "100 to 250", "unit": "nM"}]}
{"smiles": "Cc1cccc(-c2nn(CC(=O)Nc3cc(F)cc(C(=O)OCCN4CCN(C)CC4)c3)cc2-c2ccnc3ccccc23)n1", "note": "[Example 6, 2-(4-methylpiperazin-1-yl)ethyl 3-fluoro-5-(2-(3-(6-methylpyridin-2-yl)-4-(quinolin-4-yl)-1H-pyrazol-1-yl)acetamido)benzoate]", "values": [{"measurement": "IC50", "setting": "ALK-5", "result": "< 1000", "unit": "nM"}, {"measurement": "IC50", "setting": "Human TGFβR-1", "result": "100 to 250", "unit": "nM"}]}
{"smiles": "Cc1cccc(-c2nn(CC(=O)Nc3cc(F)cc(C(=O)OC4CCN(C)CC4)c3)cc2-c2ccnc3ccccc23)n1", "note": "[Example 8, 1-methylpiperidin-4-yl 3-fluoro-5-(2-(3-(6-methylpyridin-2-yl)-4-(quinolin-4-yl)-1H-pyrazol-1-yl)acetamido)benzoate]", "values": [{"measurement": "IC50", "setting": "Human TGFβR-1", "result": "100 to 250", "unit": "nM"}]}
{"smiles": "Cc1cccc(-c2nn(CC(=O)Nc3cc(F)cc(C(=O)O[C@H]4CN5CCC4CC5)c3)cc2-c2ccnc3ccccc23)n1", "note": "[Example 10, (R)-quinuclidin-3-yl 3-fluoro-5-(2-(3-(6-methylpyridin-2-yl)-4-(quinolin-4-yl)-1H-pyrazol-1-yl)acetamido)benzoate]", "values": [{"measurement": "IC50", "setting": "Human TGFβR-1", "result": "< 100", "unit": "nM"}]}
{"smiles": "Cc1cccc(-c2nn(CC(=O)Nc3cc(F)cc(C(=O)O[C@@H]4CN5CCC4CC5)c3)cc2-c2ccnc3ccccc23)n1", "note": "[Example 11, (S)-quinuclidin-3-yl 3-fluoro-5-(2-(3-(6-methylpyridin-2-yl)-4-(quinolin-4-yl)-1H-pyrazol-1-yl)acetamido)benzoate]", "values": [{"measurement": "IC50", "setting": "Human TGFβR-1", "result": "< 100", "unit": "nM"}]}
{"smiles": "Cc1cccc(-c2nn(CC(=O)Nc3cc(F)cc(C(=O)OC45CCN(CC4)CC5)c3)cc2-c2ccnc3ccccc23)n1", "note": "[Example 12, quinuclidin-4-yl 3-fluoro-5-(2-(3-(6-methylpyridin-2-yl)-4-(quinolin-4-yl)-1H-pyrazol-1-yl)acetamido)benzoate]", "values": [{"measurement": "IC50", "setting": "Human TGFβR-1", "result": "< 100", "unit": "nM"}]}
{"smiles": "Cc1cccc(-c2nn(CC(=O)Nc3cc(F)cc(C(=O)OCCN4CCC4)c3)cc2-c2ccnc3ccccc23)n1", "note": "[Example 13, 2-(azetidin-1-yl)ethyl 3-fluoro-5-(2-(3-(6-methylpyridin-2-yl)-4-(quinolin-4-yl)-1H-pyrazol-1-yl)acetamido)benzoate]", "values": [{"measurement": "IC50", "setting": "Human TGFβR-1", "result": "100 to 250", "unit": "nM"}]}
{"smiles": "Cc1cccc(-c2nn(CC(=O)Nc3cc(F)cc(C(=O)OCCN4CC4)c3)cc2-c2ccnc3ccccc23)n1", "note": "[Example 14, 2-(aziridin-1-yl)ethyl 3-fluoro-5-(2-(3-(6-methylpyridin-2-yl)-4-(quinolin-4-yl)-1H-pyrazol-1-yl)acetamido)benzoate]", "values": [{"measurement": "IC50", "setting": "Human TGFβR-1", "result": "< 100", "unit": "nM"}]}
{"smiles": "Cc1cccc(-c2nn(CC(=O)Nc3cc(F)cc(C(=O)OCCN)c3)cc2-c2ccnc3ccccc23)n1", "note": "[Example 16, 2-aminoethyl 3-fluoro-5-(2-(3-(6-methylpyridin-2-yl)-4-(quinolin-4-yl)-1H-pyrazol-1-yl)acetamido)benzoate]", "values": [{"measurement": "IC50", "setting": "Human TGFβR-1", "result": "< 100", "unit": "nM"}]}
{"smiles": "CCNCCOC(=O)c1cc(F)cc(NC(=O)Cn2cc(-c3ccnc4ccccc34)c(-c3cccc(C)n3)n2)c1", "note": "[Example 17, 2-(ethylamino)ethyl 3-fluoro-5-(2-(3-(6-methylpyridin-2-yl)-4-(quinolin-4-yl)-1H-pyrazol-1-yl)acetamido)benzoate]", "values": [{"measurement": "IC50", "setting": "Human TGFβR-1", "result": "< 100", "unit": "nM"}]}
{"smiles": "Cc1cccc(-c2nn(CC(=O)Nc3cc(F)cc(C(=O)OCCNC(C)C)c3)cc2-c2ccnc3ccccc23)n1", "note": "[Example 18, 2-(isopropylamino)ethyl 3-fluoro-5-(2-(3-(6-methylpyridin-2-yl)-4-(quinolin-4-yl)-1H-pyrazol-1-yl)acetamido)benzoate]", "values": [{"measurement": "IC50", "setting": "Human TGFβR-1", "result": "< 100", "unit": "nM"}, {"measurement": "remaining percentage 0 min", "setting": "[1]", "result": 100, "unit": "%"}, {"measurement": "remaining percentage 30 min", "setting": "[1]", "result": 33.9, "unit": "%"}, {"measurement": "remaining percentage 120 min", "setting": "[1]", "result": 11.1, "unit": "%"}, {"measurement": "remaining percentage 360 min", "setting": "[1]", "result": 0.1, "unit": "%"}]}
{"smiles": "Cc1cccc(-c2nn(CC(=O)Nc3cc(F)cc(C(=O)OCC4CCNCC4)c3)cc2-c2ccnc3ccccc23)n1", "note": "[Example 20, piperidin-4-ylmethyl 3-fluoro-5-(2-(3-(6-methylpyridin-2-yl)-4-(quinolin-4-yl)-1H-pyrazol-1-yl)acetamido)benzoate]", "values": [{"measurement": "IC50", "setting": "Human TGFβR-1", "result": "100 to 250", "unit": "nM"}]}
